Measured values reported in patent publication US8881823B2, “Environmentally friendly low temperature breaker systems and related methods” (Halliburton Energy Services, Inc., priority 2011, dated 2014).

Legend:
Assay type in all cases: physicochemical
[1] = Chemical oxygen demand (COD) test
From the text: Table 2 compares the biodegradability of GLDA and EDTA and summarizes chemical oxygen demand (COD) tests which indirectly measures the amount of organic compounds in water.

[2] = Dissolution and miscibility tests in sodium bromide brines; settings: for % Complexed or Dissolved / Final Weight of BARACARB 5: 2.5 g BARACARB 5, 150° F., 16 hours
Experimental: Dissolution and miscibility tests were also performed on 20% GLDA in sodium bromide brines. 20% GLDA was mixed in various concentration of NaBr in order to evaluate the effect of brine concentration on the dissolving capacity of GLDA. Without being limited by theory, it is believed that reducing the amount of available free water in the brine reduced the dissociation rate of the acid functionalities on the breaker, which in turn reduced the amount of complexed calcium ions. These tests were performed in 20% v/v breaker systems in 10.2 lb/gal KCl/NaBr brine or 12.5 lb/gal NaBr brine. In each case, 2.5 g of BARACARB 5 calcium carbonate was added to the breaker systems at 150° F. for 16 hours. For comparison, a mineral acid breaker system was also tested.

[3] = Compatibility and dissolution ability in potassium formate brine; settings: for % Dissolved or precipitated out / Amount of carbonate remaining: 20% v/v breaker; for Amount of carbonate remaining: 2.5 g calcium carbonate, 16 hours, * = precipitation of formate salts
Experimental: In this Example, the compatibility and dissolution ability of various breaker systems with formate brine were evaluated. […] For each sample a 20% v/v breaker sample was prepared in three different concentrations of potassium formate brine (11 ppg, 12 ppg, and 13 ppg).
To determine the compatibility of each breaker with the potassium formate brine, each sample was checked for the formation of formate salts. This precipitation was indicative of an incompatibility of the breaker system with the formate brine. Samples in which precipitation was observed are noted with an asterisk (*).
The dissolution ability of the breaker systems was also tested in the various concentration of formate brine. […] The jars were then dried in an 90° F. oven for 16 hours. After the elapsed time, the amount of carbonate that remained was weighed and tabulated. The difference in weight represented the amount of carbonate that was dissolved by the breaker system and/or precipitated out as a result of being incompatible with the formate brine.

[4] = 20% v/v breaker in 10.2 lb/gal KCl/NaBr
[5] = 20% v/v breaker in 12.5 lb/gal NaBr

SMILES: O=C(O)CC[C@@H](C(=O)O)N(CC(=O)O)CC(=O)O [GLDA, L-glutamic acid N,N-diacetic acid]
- COD [1]: 345 to 385 mg/g
- % Complexed or Dissolved [2, 4]: 49%
- Final Weight of BARACARB 5 [2, 4]: 1.27 g
- % Complexed or Dissolved [2, 5]: 29%
- Final Weight of BARACARB 5 [2, 5]: 1.78 g
- carbonate dissolved (FIG. 2) ([2]; higher brine concentration): less than 45%
- carbonate dissolved (FIG. 2) ([2]; lower brine concentration): more than 80%
- compatibility with the formate brine ([3]; 20% v/v breaker, 11, 12 and 13 ppg potassium formate, precipitation of formate salts = incompatible): fully compatible with the formate brine
- % Dissolved or precipitated out ([3]; 11 ppg Potassium Formate): 48%
- Amount of carbonate remaining ([3]; 11 ppg Potassium Formate): 1.05 g
- % Dissolved or precipitated out ([3]; 12 ppg Potassium Formate): 33%
- Amount of carbonate remaining ([3]; 12 ppg Potassium Formate): 1.67 g
- % Dissolved or precipitated out ([3]; 13 ppg Potassium Formate): 20%
- Amount of carbonate remaining ([3]; 13 ppg Potassium Formate): 2.00 g
